Source: ChEMBL document CHEMBL1201862, “PubChem BioAssay data set” (2004)
Calls of active or inactive are those of the source. Cut-off read from the data, not from the text of the source: actives have a measured IC50 and inactives only a lower limit.

Molecular target: Envelope glycoprotein gp160 (Human immunodeficiency virus 1, UniProt Q6QLK5)
Experiment: inhibitors of HIV fusion peptide binding, primary screen, biochemical, uHTS, fluorescence dequenching (AID 1986)

Sequence of Envelope glycoprotein gp160 (Q6QLK5 whole entry, the tested form may be a part): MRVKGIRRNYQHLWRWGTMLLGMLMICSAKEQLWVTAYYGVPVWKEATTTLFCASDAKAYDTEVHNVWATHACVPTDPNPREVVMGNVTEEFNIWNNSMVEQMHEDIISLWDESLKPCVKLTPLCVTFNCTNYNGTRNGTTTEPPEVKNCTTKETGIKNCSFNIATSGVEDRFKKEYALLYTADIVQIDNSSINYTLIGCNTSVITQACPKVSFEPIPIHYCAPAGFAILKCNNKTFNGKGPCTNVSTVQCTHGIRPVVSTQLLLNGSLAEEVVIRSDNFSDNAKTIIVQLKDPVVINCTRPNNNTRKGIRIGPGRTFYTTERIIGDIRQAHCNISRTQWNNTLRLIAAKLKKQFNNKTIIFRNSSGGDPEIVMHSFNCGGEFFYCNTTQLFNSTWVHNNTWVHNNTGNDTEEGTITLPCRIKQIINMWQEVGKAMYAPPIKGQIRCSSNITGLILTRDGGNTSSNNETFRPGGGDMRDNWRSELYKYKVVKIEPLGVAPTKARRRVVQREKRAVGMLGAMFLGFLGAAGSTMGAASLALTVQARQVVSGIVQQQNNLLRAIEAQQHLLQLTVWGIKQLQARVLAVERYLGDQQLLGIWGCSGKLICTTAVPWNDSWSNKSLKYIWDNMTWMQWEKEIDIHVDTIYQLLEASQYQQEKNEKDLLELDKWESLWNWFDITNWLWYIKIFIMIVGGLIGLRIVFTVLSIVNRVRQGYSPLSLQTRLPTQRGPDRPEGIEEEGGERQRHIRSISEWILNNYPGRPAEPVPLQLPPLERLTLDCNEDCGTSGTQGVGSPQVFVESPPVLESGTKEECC

Row | Structure (SMILES) | IC50
1 | O=C(O)CN1C(=O)/C(=C\c2cc(Br)ccc2OCc2ccccc2F)SC1=S | 10.9 µM (active)
2 | O=C(N/N=C/c1cc(Cl)cc([N+](=O)[O-])c1O)NC12CC3CC(CC(C3)C1)C2 | 23.2 µM (active)
